Structures are written as SMILES.

This data set can be described thus: HILIC, Merck SeQuant ZIC-pHILIC, 150 × 2.1 mm, 5 µm, 0.1 mL/min, estimated dead time 3.3 min; A: acetonitrile; B: water + 10 mM ammonium carbonate; gradient (min/%B) 0/20 30/80. Particulars: stereoisomer not certain.
On to `OCC1OCC(O)C(O)C1O` (stereo unspecified) [1,5-Anhydroglucitol], for which the LC retention time was 9.2 min. The figure for `Cn1cnc2c(ncn2C2OC(CO)C(O)C2O)c1=N` (stereo unspecified) [1-Methyl-adenosine] is 11.1 min; for `Cn1c(N)nc2c(ncn2C2OC(CO)C(O)C2O)c1=O` (stereo unspecified) [1-Methyl-guanosine] it is 7.1 min; for `NC(CCCC(=O)O)C(=O)O` (stereo unspecified) [2-Aminoadipate] it is 12.2 min. The figure for `O=C(O)CCC(=O)C(=O)O` [2-Oxoglutarate] is 12.9 min. On to `Nc1ncnc2c1ncn2C1OC2COP(=O)(O)OC2C1O` (stereo unspecified) [3',5'-cAMP], for which the LC retention time is 7.1 min. The figure for `Nc1ccc(C(=O)O)cc1` [4-Aminobenzoate] is 7.2 min; for `O=C(O)C(O)C(O)C(O)C(O)COP(=O)(O)O` (stereo unspecified) [6-Phosphogluconate] it is 15 min. On to `Nc1ncnc2c1ncn2C1OC(COP(=O)(O)OP(=O)(O)O)C(O)C1O` (stereo unspecified) [ADP], for which the LC retention time was 12.4 min.

Regarding `NC(=O)c1ncn(C2OC(COP(=O)(O)O)C(O)C2O)c1N` (stereo unspecified) [AICAR], the LC retention time is 12.7 min. The figure for `Nc1ncnc2c1ncn2C1OC(COP(=O)(O)O)C(O)C1O` (stereo unspecified) [AMP] is 11.5 min; for `Nc1ncnc2c1ncn2C1OC(COP(=O)(O)OP(=O)(O)OP(=O)(O)O)C(O)C1O` (stereo unspecified) [ATP] it is 13.8 min; for `CC(=O)SCCNC(=O)CCNC(=O)C(O)C(C)(C)COP(=O)(O)OP(=O)(O)OCC1OC(n2cnc3c(N)ncnc32)C(O)C1OP(=O)(O)O` (stereo unspecified) [Acetyl-CoA] it is 10.5 min. The figure for `CC(=O)OC(CC(=O)[O-])C[N+](C)(C)C` (stereo unspecified) [Acetyl-carnitine] is 8.5 min; for `Nc1ncnc2nc[nH]c12` [Adenine] it is 6.6 min; for `Nc1ncnc2c1ncn2C1OC(CO)C(O)C1O` (stereo unspecified) [Adenosine] it is 6.2 min. For `NC(N)=NCCCC(N)C(=O)O` (stereo unspecified) [Arginine] the value was 24.8 min. For the molecule `NC(=NCCCC(N)C(=O)O)NC(CC(=O)O)C(=O)O` (stereo unspecified) [Arginino-succinate], the LC retention time was 14.2 min. The figure for `NC(=O)CC(N)C(=O)O` (stereo unspecified) [Asparagine] is 12.4 min; for `NC(CC(=O)O)C(=O)O` (stereo unspecified) [Aspartate] it is 12.5 min. For `C[N+](C)(C)CC(=O)[O-]` [Betaine] the value was 8.6 min; for `O=C(O)CCCCC1SCC2NC(=O)NC21` (stereo unspecified) [Biotin], 6.2 min; for `C[N+](C)(C)CCCC(=O)O` [Butyro-betaine], 10.9 min.

As for `CCCC(=O)OC(CC(=O)[O-])C[N+](C)(C)C` (stereo unspecified) [Butyryl-carnitine], the LC retention time is 6.2 min. The figure for `C[N+](C)(C)CCOP(=O)(O)OP(=O)([O-])OCC1OC(n2ccc(N)nc2=O)C(O)C1O` (stereo unspecified) [CDP-choline] is 13 min. The figure for `Nc1ccn(C2OC(COP(=O)(O)OP(=O)(O)O)C(O)C2O)c(=O)n1` (stereo unspecified) [CDP] is 14.7 min; for `Nc1ccn(C2OC(COP(=O)(O)O)C(O)C2O)c(=O)n1` (stereo unspecified) [CMP] it is 13.2 min. The figure for `Nc1ccn(C2OC(COP(=O)(O)OP(=O)(O)OP(=O)(O)O)C(O)C2O)c(=O)n1` (stereo unspecified) [CTP] is 15.5 min; for `C[N+](C)(C)CC(O)CC(=O)[O-]` (stereo unspecified) [Carnitine] it is 10.9 min. For `CC(O)(CC(=O)O)C(=O)O` (stereo unspecified) [Citramalate], the LC retention time is 12.6 min. The figure for `O=C(O)CC(O)(CC(=O)O)C(=O)O` [Citrate] is 15.5 min; for `NC(=O)NCCCC(N)C(=O)O` (stereo unspecified) [Citrulline] it is 13 min; for `CC(C)(COP(=O)(O)OP(=O)(O)OCC1OC(n2cnc3c(N)ncnc32)C(O)C1OP(=O)(O)O)C(O)C(=O)NCCC(=O)NCCS` (stereo unspecified) [CoA] it is 11.7 min. For `CN(CC(=O)O)C(=N)N` [Creatine] the value was 12.1 min; for `CN1CC(=O)NC1=N` [Creatinine], 6.9 min; for `Nc1ccn(C2OC(CO)C(O)C2O)c(=O)n1` (stereo unspecified) [Cytidine], 9.1 min. The figure for `CCCCCCCCCC(=O)OC(CC(=O)[O-])C[N+](C)(C)C` (stereo unspecified) [Decanoyl-carnitine] is 4.2 min. Consider `CN(C)C(N)=NCCCC(N)C(=O)O` (stereo unspecified) [Dimethyl-arginine], for which the LC retention time is 20 min.

Take `CN(C)c1nc2c(ncn2C2OC(CO)C(O)C2O)c(=O)[nH]1` (stereo unspecified) [Dimethyl-guanosine]: the LC retention time was 6 min. Regarding `C[NH+](C)C(Cc1cnc[nH]1)C(=O)[O-]` (stereo unspecified) [Dimethyl-histidine], the LC retention time was 9.7 min. The figure for `CN(C)CCCCC(N)C(=O)O` (stereo unspecified) [Dimethyl-lysine] is 19.2 min; for `C[N+]1(C)CCCC1C(=O)[O-]` (stereo unspecified) [Dimethyl-proline (stachydrine)] it is 7.9 min; for `O=C(O)C(COP(=O)(O)O)OP(=O)(O)O` (stereo unspecified) [Diphospho-glycerate] it is 15.6 min. The figure for `C[N+](C)(C)C(Cc1cnc([S-])[nH]1)C(=O)O` (stereo unspecified) [Ergothioneine] is 12.1 min. For `Cc1cc2nc3c(=O)[nH]c(=O)nc-3n(CC(O)C(O)C(O)COP(=O)(O)OP(=O)(O)OCC3OC(n4cnc5c(N)ncnc54)C(O)C3O)c2cc1C` (stereo unspecified) [FAD] the value was 9.4 min; for `O=P(O)(O)OCC1OC(O)(COP(=O)(O)O)C(O)C1O` (stereo unspecified) [Fructose-1,6-diphosphate], 15.5 min.

Regarding `O=P(O)(O)OCC1OC(O)(CO)C(O)C1O` (stereo unspecified) [Fructose-6-phosphate], the LC retention time was 13.3 min.

Take `O=C(O)C=CC(=O)O` [Fumarate]: the LC retention time was 13.1 min. For `Nc1nc2c(ncn2C2OC(COP(=O)(O)OP(=O)(O)OC3OC(CO)C(O)C(O)C3O)C(O)C2O)c(=O)[nH]1` (stereo unspecified) [GDP-glucose] the value was 15.5 min; for `Nc1nc2c(ncn2C2OC(COP(=O)(O)OP(=O)(O)O)C(O)C2O)c(=O)[nH]1` (stereo unspecified) [GDP], 15.5 min; for `Nc1nc2c(ncn2C2OC(COP(=O)(O)O)C(O)C2O)c(=O)[nH]1` (stereo unspecified) [GMP], 14.1 min. For `Nc1nc2c(ncn2C2OC(COP(=O)(O)OP(=O)(O)OP(=O)(O)O)C(O)C2O)c(=O)[nH]1` (stereo unspecified) [GTP] the value was 16.4 min; for `O=C(O)C(O)C(O)C(O)C(O)CO` (stereo unspecified) [Gluconate], 11.4 min; for `NC1C(O)OC(CO)C(O)C1O` (stereo unspecified) [Glucosamine], 11.6 min. The figure for `O=P(O)(O)OCC1OC(O)C(O)C(O)C1O` (stereo unspecified) [Glucose-6-phosphate] is 14.2 min; for `OCC1OC(O)C(O)C(O)C1O` (stereo unspecified) [Glucose] it is 12 min; for `COC(=O)C(N)CCC(=O)O` (stereo unspecified) [Glutamate methyl ester] it is 7.1 min. Regarding `NC(CCC(=O)O)C(=O)O` (stereo unspecified) [Glutamate], the LC retention time is 12.1 min. For `NC(=O)CCC(N)C(=O)O` (stereo unspecified) [Glutamine] the value was 12.2 min; for `O=C(O)CCCC(=O)O` [Glutarate], 12 min; for `NC(CCC(=O)NC(CSSCC(NC(=O)CCC(N)C(=O)O)C(=O)NCC(=O)O)C(=O)NCC(=O)O)C(=O)O` (stereo unspecified) [Glutathione disulfide (GSSG)], 15 min. The figure for `O=CC(O)COP(=O)(O)O` (stereo unspecified) [Glyceraldehyde-3-phosphate] is 13.2 min. The figure for `O=C(O)C(O)CO` (stereo unspecified) [Glyceric acid] is 10.1 min; for `O=P(O)(O)OC(CO)CO` [Glycerol-2-phosphate] it is 12.2 min; for `C[N+](C)(C)CCOP(=O)([O-])OCC(O)CO` (stereo unspecified) [Glycerophosphocholine] it is 12.1 min. On to `Nc1nc2c(ncn2C2OC(CO)C(O)C2O)c(=O)[nH]1` (stereo unspecified) [Guanosine], for which the LC retention time is 9.8 min. For the molecule `CC(O)(CC(=O)O)CC(=O)SCCNC(=O)CCNC(=O)C(O)C(C)(C)COP(=O)(O)OP(=O)(O)OCC1OC(n2cnc3c(N)ncnc32)C(O)C1OP(=O)(O)O` (stereo unspecified) [HMG-CoA], the LC retention time was 13.2 min. For `CCCCCC(=O)OC(CC(=O)[O-])C[N+](C)(C)C` (stereo unspecified) [Hexanoyl-carnitine] the value was 4.8 min.

Turning to `O=C(O)CNC(=O)c1ccccc1` [Hippurate], the LC retention time was 4.4 min. For `NCCc1cnc[nH]1` [Histamine], the LC retention time is 24.8 min. For `NC(Cc1cnc[nH]1)C(=O)O` (stereo unspecified) [Histidine] the value was 12 min. For `NC(CO)Cc1cnc[nH]1` (stereo unspecified) [Histidinol] the value was 16.3 min; for `O=c1[nH]cnc2nc[nH]c12` [Hypoxanthine], 7.6 min; for `O=S(=O)(O)Oc1c[nH]c2ccccc12` [Indoxyl-sulfate], 4.9 min. For `O=c1[nH]cnc2c1ncn2C1OC(CO)C(O)C1O` (stereo unspecified) [Inosine] the value was 8.2 min.

As for `CCC(C)C(N)C(=O)O` (stereo unspecified) [Isoleucine], the LC retention time is 8.6 min. On to `CC(C)CC(=O)OC(CC(=O)[O-])C[N+](C)(C)C` (stereo unspecified) [Isovaleryl-carnitine], for which the LC retention time is 5.4 min. Turning to `Nc1ccccc1C(=O)CC(N)C(=O)O` (stereo unspecified) [Kynurenine], the LC retention time was 8 min. The figure for `CC(C)CC(N)C(=O)O` (stereo unspecified) [Leucine] is 7.6 min; for `NCCCCC(N)C(=O)O` (stereo unspecified) [Lysine] it is 23.3 min. In the case of `O=C(O)CC(O)C(=O)O` (stereo unspecified) [Malate], the LC retention time was 13.3 min. The figure for `CSCCC(N)C(=O)O` (stereo unspecified) [Methionine] is 8.7 min.

In the case of `Cn1cnc(CC(N)C(=O)O)c1` (stereo unspecified) [Methyl-histidine], the LC retention time was 10.2 min. For `CNCCCCC(N)C(=O)O` (stereo unspecified) [Methyl-lysine] the value was 22.1 min; for `CC(=O)NC(CCCC[NH3+])C(=O)[O-]` (stereo unspecified) [N2-Acetyl-lysine], 12.7 min; for `CC(=O)NCCCCC([NH3+])C(=O)[O-]` (stereo unspecified) [N6-Acetyl-lysine], 10.5 min.

The values are drawn from the RepoRT retention time repository (doi:10.1039/c4mb00346b).
